From US20110124715A1, “Antiviral Oligonucleotides Having a Conserved G4 Core Sequence” (priority 1992, published 2011)
pEC50, pIC50, pKd: −log10 of the molar value. Several values for one entry are separate records, joined by “and”; a condition that tells them apart may be missing. Equal values may be shown once. Read-outs that look alike come from different tables or passages of the source. Marks after values point to notes of the source that are not given here. Strand notation (5' to 3'): a small letter for the sugar, then the base; units joined by * are phosphorothioate-linked, units joined directly phosphodiester-linked; [ ] holds rarer units or linkages, { } end groups; capitals alone tell only the bases. [I] = hypoxanthine (inosine); d = 2'-deoxy (DNA)

How the values were obtained:
[1] = tested on: HIV-1IIIB
[2] = tested on: human T-lymphoblastoid CEM cell line
[3] = tested on: HSV-1 (KOS); experiment: HSV-1 infection ELISA assay; assay type: cell-based, herpes simplex virus
[4] = tested on: HIV-1IIIB; experiment: Acute HIV infection assay (XTT, CEM cells); details: Table 3; for pIC50: inhibition of HIV
[5] = target: T1, human type II phospholipase A2 (Homo sapiens, UniProt P14555); experiment: Phospholipase A2 assay, 3H-oleic acid labelled E. coli substrate; assay type: biochemical; details: for effect on substrate kinetics: increasing amounts of E. coli substrate, ISIS 3481 at 0.2 μM and 2 μM
T1 sequence (P14555 21-144): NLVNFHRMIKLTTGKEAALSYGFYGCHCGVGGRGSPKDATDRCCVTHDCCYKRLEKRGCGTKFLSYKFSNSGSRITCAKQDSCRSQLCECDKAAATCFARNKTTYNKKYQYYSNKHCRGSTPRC

[6] = Fraction tetramer by size exclusion chromatography; assay type: physicochemical; details: Table 16; asterisk = more than one aggregate species
[7] = tested on: HIV-1; details: Table 16, acute HIV assay
[8] = target: gp120 (Human immunodeficiency virus type 1 group M subtype B, UniProt P03375); details: read-out: dissociation constant (Kd); immobilized gp120; FIG. 16
[9] = tested on: HIV-1; details: 5 μM oligonucleotide
[10] = target: CD4 (Homo sapiens, UniProt P01730); assay type: binding
[11] = Table 12, inosine-substituted oligonucleotides against HSV
[12] = Table 1, 50% inhibition of HSV replication relative to control infected cells

Compound: 4721 (CACGGGGTCG; phosphorothioate, further chemistry not given here) [compound 4721]
- TI (TC50/IC50) [1]: 546
- TC50 [2]: 142 µM

Compound: 4925 (GTTGGAGACCGGNGTTGGNG; DNA, [I] at 13, 19, backbone not given here) [compound 4925]
- pEC50 [3, 11]: 5.80

Compound: 5295 (GTTGGAGACCGGGNTTGGGG; DNA, [I] at 14, backbone not given here) [compound 5295]
- pEC50 [3, 11]: < 5.52

Compound: 5296 (GTTGGAGACCGGGGTTGGNG; DNA, [I] at 19, backbone not given here) [compound 5296]
- pEC50 [3, 11]: 6.10

Compound: 5297 (CACGAAAGGCATGACCGNGGC; DNA, [I] at 18, backbone not given here) [compound 5297]
- pEC50 [3, 11]: < 5.52

Compound: 5309 (GTTGGAGACCGNGTTGGGG; inosine substitution, further chemistry not given here) [compound 5309]
- pEC50 [3, 11]: < 5.52

Compound: 5310 (GTTGGAGACCGGGGTTGGGN; DNA, [I] at 20, backbone not given here) [compound 5310]
- pEC50 [3, 11]: 6.40

Compound: 5366 (TTGGGGTTGGGGTTGGGGTTGGGGG; phosphorothioate, further chemistry not given here) [compound 5366]
- TI (TC50/IC50) [4]: 220
- TC50 [2]: 22 µM

Compound: 5544 (GGGTGGGTATAG; phosphorothioate, further chemistry not given here) [compound 5544]
- pEC50 [3, 12]: < 5.52
- % Inhibition (1 μM) ([5]; Table 5, 1 μM, two separate experiments): 50%

Compound: 5590 (GGGGTTGGGG; phosphodiester, further chemistry not given here) [compound 5590]
- pIC50 [4]: < 4.60
- pEC50 [3, 12]: < 5.52
- TC50 [2]: 20 µM

Compound: 5649 (TTGGGGTTGGGGTTGGGGTTGGGG; phosphodiester, further chemistry not given here) [compound 5649]
- TI (TC50/IC50) [1]: 300
- pEC50 [3, 12]: < 5.52

Compound: 5650 (TTGGGGTTGGGGTTGGGGTT; phosphodiester, further chemistry not given here) [compound 5650]
- pIC50 [4]: 6.19
- TI (TC50/IC50) [1]: 12
- pEC50 [3, 12]: < 5.52
- TC50 [2]: 7.6 µM

Compound: 5651 (TTGGGGTTGGGGTTGGGGTTGGGG; phosphorothioate, further chemistry not given here) [compound 5651]
- TI (TC50/IC50) [1]: 175
- TC50 [2]: 19, 19 μM

Compound: 5652 (TTGGGGTTGGGGTTGGGGTT; phosphorothioate, further chemistry not given here) [compound 5652]
- TI (TC50/IC50) [4]: 227

Compound: 5653 (TTGGGGTTGGGGTTGGGG; phosphorothioate, further chemistry not given here) [compound 5653]
- pIC50 [4]: 6.72
- TC50 [2]: 27 µM

Compound: 5666 (DNA TTGGGGTTGGGGTTGGGG; phosphodiester, further chemistry not given here) [compound 5666]
- TI (TC50/IC50) [1]: 100

Compound: 5667 (DNA TTGGGGTTGGGGTT; unmodified DNA) [compound 5667]
- pIC50 [4]: < 4.66
- TC50 [2]: 5.6 µM

Compound: 5668 (DNA TTGGGGTTGGGG; unmodified DNA) [compound 5668]
- pIC50 [4]: < 4.68
- TC50 [2]: 5.2 µM

Compound: 5669 (DNA GGGGTTGGGGTTGGGG; unmodified DNA) [compound 5669]
- pIC50 [4]: 5.92
- TI (TC50/IC50) [1]: 9
- TC50 [2]: 9.6 µM

Compound: 5670 (DNA GGGGTTGGGGTTGGGGTTGGGG; unmodified DNA) [compound 5670]
- pEC50 [3, 12]: < 5.52
- TC50 [2]: 15 µM

Compound: 5674 (DNA dT*dT*dG*dG*dG*dG*dT*dT*dG*dG*dG*dG) [compound 5674]
- TC50 [2]: >200 µM

Compound: 5675 (DNA dT*dT*dG*dG*dG*dG*dT*dT*dG*dG*dG*dG*dT*dT) [compound 5675]
- TI (TC50/IC50) [1]: 36
- TC50 [2]: 14 µM

Compound: 5676 (DNA dG*dG*dG*dG*dT*dT*dG*dG*dG*dG*dT*dT*dG*dG*dG*dG) [compound 5676]
- TI (TC50/IC50) [1]: 114

Compound: 5677 (DNA dG*dG*dG*dG*dT*dT*dG*dG*dG*dG*dT*dT*dG*dG*dG*dG*dT*dT*dG*dG*dG*dG) [compound 5677]
- TI (TC50/IC50) [1]: 146

Compound: Nc1nc2c(ncn2COCCO)c(=O)[nH]1 [ACV, 9-(2-hydroxyethoxymethyl) guanine, reference compound]
- activity against HSV-1 ([3]; FIG. 8 and FIG. 9): more active than a control oligonucleotide, ISIS 3383

Compound: AGGTCGAGGAGTGGTCTGAGC (dA*dG*dG*dT*dC*dG*dA*dG*dG*dA*dG*dT*dG*dG*dT*dC*dT*dG*dA*dG*dC) [ISIS 3631]
- I.C.50 relative to ISIS 3196 ([5]; b86, fold higher): approximately 10 fold

Compound: GCCGAGGTCCATGTCGTACGC (GCCGAGGTCCATGTCGTACGC; chemistry not given here) [ISIS 1082, negative control oligonucleotide complementary to HSV UL13 translation initiation codon; has no runs of G, reference compound]
- pEC50 ([3]; b150, duplicate experiments): 5.60 and 5.74

Compound: GG GG [ISIS 4803]
- % tetramer [6]: 29* %

Compound: GGG T GGG T ATA G AAG G GCT CC (GGGTGGGTATAGAAGGGCTCC; chemistry not given here) [ISIS 3196]
- inhibition of enzyme activity ([5]; 1 μM): completely inhibited
- inhibition ([5]; boiling water for 15 minutes prior to addition to the assay): 21%
- effect on substrate kinetics [5]: apparent noncompetitive inhibitor
- inhibition ([5]; native, not boiled): 94%

Compound: GGGGGGTG [ISIS 5684]
- ED50 ([3]; b190): approximately 0.6 μM

Compound: GTAGGGAGGGAGGGTATGAGA (dG*dT*dA*dG*dG*dG*dA*dG*dG*dG*dA*dG*dG*dG*dT*dA*dT*dG*dA*dG*dA) [ISIS 3470]
- inhibition of enzyme activity ([5]; 1 μM): completely inhibited

Compound: GTGGAGGAGAGCAGTAGAAGG (dG*dT*dG*dG*dA*dG*dG*dA*dG*dA*dG*dC*dA*dG*dT*dA*dG*dA*dA*dG*dG) [ISIS 3477]
- inhibition of enzyme activity ([5]; 1 μM): 54.7%

Compound: GsGsGsGsT
- pIC50 [7]: 5.85
- % tetramer [6]: 61* %

Compound: GsGsGsGsTsT
- pIC50 [7]: 6.30
- % tetramer [6]: 94* %

Compound: ISIS 1573: phosphorothioate deoxyoligonucleotide, SEQ ID NO: 120 (DNA dG*dA*dG*dG*dC*dT*dG*dA*dG*dG*dT*dG*dG*dG*dA*dG*dG*dA)
- inhibition of phospholipase A2 ([5]; concentrations as high as 10 μM): did not significantly inhibit

Compound: T2A4T2-biotin
- pKd [8]: ~3.59

Compound: TGG GG [ISIS 5544]
- IC50 [7]: inactive
- % tetramer [6]: 57* %
- inhibition of enzyme activity ([5]; 1 μM): 50%
- inhibition of enzyme activity ([5]; 3 μM): complete inhibition

Compound: TGTGTGTG [ISIS 6071, reference compound]
- inhibition of binding [9]: showed inhibition of binding
- IC50 [7]: inactive
- % tetramer [6]: 0%

Compound: TT GGGG TT [ISIS 5671]
- IC50 ([7]; listed as ToToGoGoGoGoToT): inactive

Compound: TT GGGG [ISIS 5739]
- pIC50 [7]: 4.89
- % tetramer [6]: 40* %

Compound: TTTTTGATTTGCTAATTGCTT (dT*dT*dT*dT*dT*dG*dA*dT*dT*dT*dG*dC*dT*dA*dA*dT*dT*dG*dC*dT*dT) [ISIS 3481]
- effect on substrate kinetics [5]: did not modify the substrate kinetics

Compound: ToToGsGsGsGoToT
- IC50 [7]: inactive
- % tetramer [6]: 72%

Compound: ToTsGoGsGoGsToT
- IC50 [7]: inactive
- % tetramer [6]: 9%

Compound: TsToGsGoGsGoTsT
- pIC50 [7]: 5.28
- % tetramer [6]: 83%

Compound: TsTsGoGoGoGsTsT
- pIC50 [7]: 5.30
- % tetramer [6]: 80%

Compound: TsTsGsGsGsGsTsT [TsTsGsGsGsGsTsT heat denatured]
- inhibition of binding [9]: showed inhibition of binding
- IC50 [7]: inactive
- % tetramer [6]: 0%

Compound: TsTsGsGsGsGsTsTsB
- pIC50 [7]: 6.40
- pKd [10]: ~4.60
- % tetramer [6]: 85%

Compound: α-ToToGoGoGoGoToT
- IC50 [7]: inactive
- % tetramer [6]: 97%

Compound: α-TsTsGsGsGsGsTsT
- pIC50 [7]: 6.30
- % tetramer [6]: 98%
